Measured values taken from patent publication US6528042B1, “Compositions of flavonoids for use as cytoprotectants and methods of making and using them” (Galileo Laboratories, Inc., priority 1999, dated 2003).

Columns and labels:
[1] = tested on: Oxidatively competent cells; experiment: SYTOX cell death assay in oxidatively competent cells treated with antimycin A; type: cell-based
Description: Oxidatively competent cells are prepared as described in Example 1. and Example 2.A and are seeded onto 96-well plates at 1×10^3/well or 2.5×10^3/well as passage 15. The cells are grown in DMEM with 10% FBS and 1.5 g/L sodium bicarbonate for 24 or 48 hours to reach 85% confluence. The cells are washed once with HBSS and then 100 μl of HBSS containing different concentration of AA (Sigma, Cat #A 8674) is added to the cells. AA is dissolved in DMSO to make a stock solution of 50 mM, then diluted with HBSS to 25, 12.5, 6.25, 3.125, and 1.56 μM for dose-response curves. The cells, with or without AA, are incubated at 37° C. in a 5% CO2 humidified incubator for 1 to 5 hours. The concentration of AA is chosen to induce 75% or 100% cell death as a screening dose to test the effect of agents to protect against AA- induced cell toxicity. The concentration of agents used for screening will be dependent upon the agents. Certain control groups contain 100 μl of HBSS only.
(§1) SYTOX Green nucleic acid stain is a high-affinity nucleic acid stain that easily penetrates cells with a compromised plasma membrane but will not cross the membrane of live cells. The nucleic acids of dead cells fluoresce bright green at 524 nm when excited with the 488 nm spectral source or with any other 450-500 nm source. […] In the cell viability assay chemical ischemia is created in cells and then cells are incubated with the SYTOX dye. The compound antimycin is used to simulate ischemia at the same time as stimulating the cells with forskolin. […] The assay is performed on cells grown in 96-well format allowing high throughput screening of compounds.
(§2) Compound(s) are mixed with the 1 μM SYTOX working solution and added to the washed cell culture wells. Fluorescence is measured at designated time points (488 nm excitation and 530 nm emission). All of the sample readings subtract the background readings, which is cell-free wells only containing HBSS buffer with SYTOX green dye. The data is compared to non-treated cells (control) and is expressed as mean±S.D. from 4 culture wells. SYTOX Green fluorescence units obtained from each group are corrected for basal fluorescence (cell-free wells with only HBSS and fluorescence reagent). Data are represented as mean±SD. A paired t-test is performed comparing treated groups (Toxin+Agent) with non-treated groups (Toxin only) after subtracting the control groups (HBSS only) for each data set. Comparisons among groups are statistically evaluated by two-tailed t-test (Graphpad Prism Software, version 2.0). Differences are considered significant at P<0.05.
Oxidatively competent cells were treated simultaneously with hesperetin, chrysin and 100 nM antimycin A2.C. The cells were treated with various low concentrations of hesperetin and various concentrations of chrysin (Sigma Chemical Co., cat. #C3018). Hesperetin, chrysin and antimycin A were mixed together before treating the cells. Cell viability was measured at time points up to 5 hours using SYTOX, as described in Example 2.F.
In experiments carried out in support of the invention, various concentrations of diosmin and alpha-tocopherol were tested for synergistic ability to ameliorate disruption of energy metabolism secondary to stress. Oxidatively competent cells were treated simultaneously with diosmin, alpha-tocopherol and antimycin A2.C. The cells were treated with various low concentrations of diosmin (Sigma Chemical Co., cat. #D3525) and various low concentrations of (+/−) alpha-tocopherol. Diosmin, alpha-tocopherol and antimycin were mixed together before treating cells. Cell viability was measured 4 hours after treatment using SYTOX. […] Likewise, the combination of disomin (11-100 μM) with 1.1 μg/ml (+/−) alpha tocopherol was synergistic. […] Diosmin alone provided no protection at a concentration of 100 μM. […] A combination of 100 μM diosmin and 11 μg/ml (+/−) alpha tocopherol was also synergistic. […]

GCL1 cells = experiment: SYTOX cell death assay in GCL1 cells treated with antimycin A (chemical ischemia); type: cell-based, rat hepatoma cells (fao) / human fibroblasts (W138) hybrid
Description: At greater than 80% confluence, more than 80% of the cells participate in forming one or more phaselucent, spherical structures that are located between cells, termed bile canicular-like spaces. In contrast to the majority of cell lines maintained in culture which are fermentative, GCL1 cells, when at their maximal density and polarity, are highly oxidative (i.e., they can be readily killed by inhibitors of oxidative phosphorylation or electron transport uncouplers). […] These cells are amenable to use in high throughput screening (HTS) technology.
The cells, with or without AA, are incubated at 37° C. in a 5% CO2 humidified incubator for 1 to 5 hours. […] The concentration of agents used for screening will be dependent upon the agents. Certain control groups contain 100 μl of HBSS only.
as §1
Aliquot at 100 μl. This 10 mM stock is then diluted to 1 mM with DMSO and aliquoted at 25 μL. Both the 10 mM and the 1 mM are stored at −20° C. until use. […] Aliquot at 100 μl and store at −20° C. until use. iv.) HBSS-SYTOX-FORSKOLIN-ANTIMYCIN (H-S-F-A) solution: H-S-F-A solution is made up fresh prior to each assay in sterile 175 ml or 225 ml Falcon bottles. […]
Cells are grown in 96-well black plates (with or without clear bottoms) at a density of 1000 cells per well for 24 hours. The necessary number of 96-well plates containing the specific cell type are obtained and placed in the laminar flow safety cabinet. A sterile microtiter basin is filled with the appropriate volume of pre-warmed 1×HBSS. Using aseptic technique and an 8-channel aspirator, the media is carefully removed from the cells and replaced with 200 μl of 1×HBSS. This is done as quickly as possible to prevent the cells drying out. The plates are then placed in the humidified 37° C. incubators of the Biomek 2000 Side Loader. Four plates are washed at a time so as to minimize the time that the cells are sitting in 1×HBSS prior to addition of the H-S-A-compound test solution.
as §2
Hesperetin, diosmin, luteolin and quercetin were tested individually for their ability to counteract disruptions of normal energy metabolism. Flavonoids were commercially obtained, generally from Sigma Chemical Co., St. Louis, Mo., and/or Aldrich Chemical Co., Milwaukee, Wis.

[2] = cited from earlier work
[3] = 25 μM hesperetin alone, 4 hours, control cell death 82.9%

COc1ccc([C@@H]2CC(=O)c3c(O)cc(O)cc3O2)cc1O [Hesperetin, (S)-2,3-dihydro-5,7-dihydroxy-2-(3-hydroxy-4-methoxyphenyl)-4H-1-benzopyran-4-one]
Cell Death ([1]; 50 μM hesperetin alone, control 72.9%): 73.4% | protection when tested separately ([1]; 2 and 50 μM hesperetin, four hours): generally ineffective | Cell Death (GCL1 cells; [3]): 81.1% | reduction in cell death (GCL1 cells; [3]): 1.8% | protection (GCL1 cells; 50 μM Hesperetin alone): 14.4% | Cell Death (GCL1 cells; 50 μM Hesperetin alone, 4 hours, control 82.1%): 81.3% | Cell Death (GCL1 cells; 50 μM hesperetin alone, 4 hours, control 97.4%): 92.6% | protection above control level (GCL1 cells; 75 μM Hesperetin by itself): 7.5% | Cell Death (GCL1 cells; Hesperetin 1.9 μM, antimycin A 100 nM, time 0:00 hr:min): 0.0% ± 0.0 | Cell Death (GCL1 cells; Hesperetin 1.9 μM, antimycin A 100 nM, time 1:45 hr:min): 0.5% ± 0.6 | Cell Death (GCL1 cells; Hesperetin 1.9 μM, antimycin A 100 nM, time 2:45 hr:min): 30.4% ± 3.3 | Cell Death (GCL1 cells; Hesperetin 1.9 μM, antimycin A 100 nM, time 3:45 hr:min): 66.0% ± 3.1 | Cell Death (GCL1 cells; Hesperetin 1.9 μM, antimycin A 100 nM, time 4:45 hr:min): 81.5% ± 1.4 | Cell Death (GCL1 cells; Hesperetin 6 μM, antimycin A 100 nM, time 0:00 hr:min): 0.0% ± 0.0 | Cell Death (GCL1 cells; Hesperetin 6 μM, antimycin A 100 nM, time 1:45 hr:min): 1.8% ± 0.8 | Cell Death (GCL1 cells; Hesperetin 6 μM, antimycin A 100 nM, time 2:45 hr:min): 28.4% ± 1.5 | Cell Death (GCL1 cells; Hesperetin 6 μM, antimycin A 100 nM, time 3:45 hr:min): 65.0% ± 1.5 | Cell Death (GCL1 cells; Hesperetin 6 μM, antimycin A 100 nM, time 4:45 hr:min): 81.8% ± 0.7 | Cell Death (GCL1 cells; Hesperetin 17 μM, antimycin A 100 nM, time 0:00 hr:min): 0.0% ± 0.0 | Cell Death (GCL1 cells; Hesperetin 17 μM, antimycin A 100 nM, time 2:45 hr:min): 27.2% ± 2.0 | Cell Death (GCL1 cells; Hesperetin 17 μM, antimycin A 100 nM, time 3:45 hr:min): 64.1% ± 0.6 | Cell Death (GCL1 cells; Hesperetin 17 μM, antimycin A 100 nM, time 4:45 hr:min): 80.3% ± 1.0 | Cell Death (GCL1 cells; Hesperetin 50 μM, antimycin A 100 nM, time 0:00 hr:min): 0.0% ± 0.0 | Cell Death (GCL1 cells; Hesperetin 50 μM, antimycin A 100 nM, time 1:45 hr:min): 2.3% ± 0.3 | Cell Death (GCL1 cells; Hesperetin 50 μM, antimycin A 100 nM, time 2:45 hr:min): 14.4% ± 2.2 | Cell Death (GCL1 cells; Hesperetin 50 μM, antimycin A 100 nM, time 3:45 hr:min): 53.1% ± 5.7 | Cell Death (GCL1 cells; Hesperetin 50 μM, antimycin A 100 nM, time 4:45 hr:min): 74.0% ± 6.2 | protective effect (GCL1 cells; concentrations of 50 μM and below): little, if any, protective effect | abnormalities observed for a week ([2]; administered orally to mice at 100 mg/kg (U.S. Pat. No. 5,650,433)): no abnormalities were observed | effects on liver function ([2]; tests using mice): no adverse effects on liver function | toxicity or mitogenicity ([2]; tests using mice): little toxicity or mitogenicity
